Data published in publication PMC7053343, “Small molecule NSC1892 targets the CUL4A/4B-DDB1 interactions and causes impairment of CRL4^DCAF4 E3 ligases to inhibit colorectal cancer cell growth” (International Journal of Biological Sciences, 2020).
pIC50: −log10 of the molar value.

Target: T1, DNA damage-binding protein 1 (DDB1) (Homo sapiens, UniProt Q16531)
T1 construct: with CUL4A
Assay: AlphaScreen disruption of purified His-DDB1/GST-CUL4A interaction; in vitro Ni-NTA pulldown with recombinant proteins

T1 sequence (Q16531 whole entry): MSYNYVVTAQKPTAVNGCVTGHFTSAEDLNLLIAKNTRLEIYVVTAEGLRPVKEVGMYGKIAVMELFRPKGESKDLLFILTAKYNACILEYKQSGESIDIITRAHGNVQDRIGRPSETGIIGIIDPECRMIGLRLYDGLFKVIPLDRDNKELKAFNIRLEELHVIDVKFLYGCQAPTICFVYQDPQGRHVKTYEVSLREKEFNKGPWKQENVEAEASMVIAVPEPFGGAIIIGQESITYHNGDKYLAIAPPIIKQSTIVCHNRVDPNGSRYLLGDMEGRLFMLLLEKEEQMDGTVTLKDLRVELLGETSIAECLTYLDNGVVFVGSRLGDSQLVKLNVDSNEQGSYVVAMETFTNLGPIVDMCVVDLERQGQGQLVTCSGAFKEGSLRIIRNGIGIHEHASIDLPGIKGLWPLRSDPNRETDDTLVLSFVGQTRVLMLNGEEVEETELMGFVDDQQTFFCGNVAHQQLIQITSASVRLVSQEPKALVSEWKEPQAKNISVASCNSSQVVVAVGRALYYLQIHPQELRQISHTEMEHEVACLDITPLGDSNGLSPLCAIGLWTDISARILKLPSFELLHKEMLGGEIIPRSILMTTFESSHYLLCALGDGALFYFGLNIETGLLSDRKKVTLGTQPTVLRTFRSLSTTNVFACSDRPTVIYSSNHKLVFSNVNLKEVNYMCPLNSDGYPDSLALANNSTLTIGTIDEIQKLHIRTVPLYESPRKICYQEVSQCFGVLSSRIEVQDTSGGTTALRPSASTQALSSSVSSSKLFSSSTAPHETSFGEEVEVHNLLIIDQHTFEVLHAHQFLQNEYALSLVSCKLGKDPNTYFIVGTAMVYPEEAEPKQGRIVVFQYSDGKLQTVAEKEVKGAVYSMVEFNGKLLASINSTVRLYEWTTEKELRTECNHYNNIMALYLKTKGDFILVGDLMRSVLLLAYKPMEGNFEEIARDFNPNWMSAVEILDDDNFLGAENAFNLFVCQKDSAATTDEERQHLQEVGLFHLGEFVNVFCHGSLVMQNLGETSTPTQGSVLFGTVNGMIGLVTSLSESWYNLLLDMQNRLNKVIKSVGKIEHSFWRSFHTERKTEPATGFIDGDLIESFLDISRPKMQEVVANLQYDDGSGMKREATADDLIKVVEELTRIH
T1 sequence (Q13619 whole entry partner): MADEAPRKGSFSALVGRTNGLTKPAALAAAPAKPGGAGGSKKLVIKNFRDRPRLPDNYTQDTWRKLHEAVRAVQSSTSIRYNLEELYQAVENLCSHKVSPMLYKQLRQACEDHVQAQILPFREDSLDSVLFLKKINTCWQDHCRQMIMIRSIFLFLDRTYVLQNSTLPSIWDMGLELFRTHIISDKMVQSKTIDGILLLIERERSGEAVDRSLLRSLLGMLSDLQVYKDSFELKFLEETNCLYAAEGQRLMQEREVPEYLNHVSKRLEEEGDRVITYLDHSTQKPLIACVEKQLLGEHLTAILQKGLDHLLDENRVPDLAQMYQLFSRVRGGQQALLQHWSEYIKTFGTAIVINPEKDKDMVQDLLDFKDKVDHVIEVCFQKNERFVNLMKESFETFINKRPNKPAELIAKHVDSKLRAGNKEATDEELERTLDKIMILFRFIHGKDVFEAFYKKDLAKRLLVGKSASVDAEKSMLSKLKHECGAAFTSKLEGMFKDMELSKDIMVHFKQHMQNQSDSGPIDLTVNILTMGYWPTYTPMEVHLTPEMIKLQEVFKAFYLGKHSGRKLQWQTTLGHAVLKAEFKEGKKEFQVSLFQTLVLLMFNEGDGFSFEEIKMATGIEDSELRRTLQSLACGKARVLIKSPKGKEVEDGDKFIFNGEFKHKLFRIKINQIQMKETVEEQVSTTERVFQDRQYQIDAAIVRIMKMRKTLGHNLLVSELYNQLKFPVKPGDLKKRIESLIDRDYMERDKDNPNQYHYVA

## CC(=O)O[C@@H]1c2occc2[C@@H](O)C[C@H]2[C@]3(C)CC[C@H]4C(C)(C)CCC[C@]4(C)[C@H]3C[C@@]21C [NSC1892]
  pIC50: 5.74
